Measured values from BindingDB's records for doi:10.1021/jm00096a016 (Kyowa Hakko Kogyo, 1992).

Columns and labels:
[1] = Inhibition of the thromboxane A2 receptor assayed by binding to guinea pig platelets using [3H]U-46619 as radioligand
[2] = Compound was tested for its binding affinity at Thromboxane A2 receptor by measuring its ability to displace [3H]U-46619 from guinea pig platelets
[3] = Binding affinity at TXA2 receptor by measuring its ability to displace [3H]U-46619 from guinea pig platelets
[4] = Compound was tested for its inhibitory activity against TXA2 synthase obtained from bovine platelet microsomes
[5] = biological target: Thromboxane-A synthase (Bos taurus); test: Inhibitory effect against thromboxane A2 synthase binding to bovine platelets

Compound | Ki [1] | Ki [2] | Ki [3] | IC50 [4] | IC50 [5]
O=C(O)c1ccc2c(c1)C(SCCNS(=O)(=O)c1cccs1)c1ccccc1CO2 (stereo not given) | 5.7 nM | 5.7 nM |  |  | 
O=C(O)c1ccc2c(c1)C(SCCNS(=O)(=O)c1cccc([N+](=O)[O-])c1)c1ccccc1CO2 (stereo not given) | 14 nM |  | 14 nM |  | 
O=C(O)c1ccc2c(c1)C(SCCNC(=O)c1ccccc1)c1ccccc1CO2 (stereo not given) | 44 nM |  |  |  | 
O=C(O)c1ccc2c(c1)C(SCCNS(=O)(=O)c1ccc(C(F)(F)F)cc1)c1ccccc1CO2 (stereo not given) | 20 nM | 20 nM |  |  | 
O=C(O)c1ccc2c(c1)C(SCCNS(=O)(=O)c1ccccc1)c1cc(Br)ccc1CO2 (stereo not given) | 6.8 nM | 6.8 nM |  |  | 
O=C(O)c1ccc2c(c1)C(SCCNS(=O)(=O)c1ccccc1)c1ccccc1C=C2 (stereo not given) | 25 nM | 25 nM |  |  | 
O=C(O)c1ccc2c(c1)C(SCCNC(=S)NCc1ccccc1)c1ccccc1CO2 (stereo not given) | 6.1 nM |  | 6.1 nM |  | 
O=C(NCCSC1c2ccccc2COc2ccc(C(=O)O)cc21)Nc1ccccc1 (stereo not given) |  |  |  | 830 nM | 830 nM
O=C(NCCSC1c2ccccc2COc2ccc(C(=O)O)cc21)OCc1ccccc1 (stereo not given) | 7.7 nM |  |  |  | 
COc1cc(C(=O)NCCSC2c3ccccc3COc3ccc(C(=O)O)cc32)cc(OC)c1OC (stereo not given) | 92 nM |  | 92 nM |  | 
O=C(O)c1ccc2c(c1)OCc1ccccc1C2SCCNS(=O)(=O)c1ccccc1 (stereo not given) |  |  |  | 370 nM | 370 nM
O=C(O)c1ccc2c(c1)C(SCCNS(=O)(=O)c1ccccc1)c1ccccc1CC2 (stereo not given) | 30 nM |  | 30 nM |  | 
O=C(O)c1ccc2c(c1)C(SCCNC(=O)c1ccccc1O)c1ccccc1CO2 (stereo not given) | 5.1 nM | 5.1 nM |  |  | 
O=C(O)c1ccc2c(c1)C(SCCNS(=O)(=O)c1ccccc1[N+](=O)[O-])c1ccccc1CO2 (stereo not given) | 15 nM | 15 nM |  |  | 
O=C(O)c1ccc2c(c1)C(SCCNS(=O)(=O)c1ccc3ccccc3c1)c1ccccc1CO2 (stereo not given) | 14 nM |  | 14 nM |  | 
O=C(O)c1cccc(C(SCCNS(=O)(=O)c2ccccc2)c2ccccc2)c1 (stereo not given) | 77 nM |  | 77 nM |  | 
COc1ccc(S(=O)(=O)NCCSC2c3ccccc3COc3ccc(C(=O)O)cc32)cc1 (stereo not given) |  | 17 nM |  |  | 
Cc1ccc(S(=O)(=O)NCCSC2c3ccccc3COc3ccc(C(=O)O)cc32)cc1 (stereo not given) | 27 nM | 27 nM |  |  | 
Cc1ccsc1C(=O)NCCSC1c2ccccc2COc2ccc(C(=O)O)cc21 (stereo not given) | 10 nM |  | 10 nM |  | 
